Legend:
[1] = in vivo; set-up: species or system Beagle female dogs; conditions: female, beagle, dog, po; for Tmax: tmax (characterising range of the form)
Protocol: Twelve 20 week pure-bred Beagle female dogs weighing between 5.0 and 7.5 kg, have been divided into three groups of four dogs.
Each sample was transferred into an heparinized tube and was centrifuged; the plasma was divided into two 500 μl aliquots and frozen at −20° C.
(§1) Tmax=time at which the Cmax is reached;
(§2) AUC=area under the concentration-time curve calculated through the linear trapezoidal rule.

[2] = Intrinsic dissolution test (USP 27 monograph 1087); assay type: physicochemical; conditions: 0.1M aqueous phosphate buffer pH 7.4 with 0.45% sodium lauryl sulphate, 37°C
Source text: The die-holder containing the compacted pellet was then mounted on a laboratory stirring device, immersed in a dissolution medium and rotated by means of the stirring device.
A compacted pellet was formed in the die with a single face of defined area exposed on the bottom of the die so that from 50% to 75% of the compacted pellet could dissolve in an appropriate dissolution medium.
The holder containing the die was mounted on a laboratory stirring device, immersed in a glass vessel containing a dissolution medium and rotated at a rotation speed of 100 rpm by means of the stirring device, while keeping the temperature of the dissolution medium at 37±0.5° C. The dissolution medium contained in the glass vessel consisted of 1000 ml of 0.1M aqueous phosphate buffer pH 7.4 containing 4.5 g of sodium lauryl sulphate (SLS) and was kept at 37±0.5° C. for the whole duration of the test.

[3] = in vivo; set-up: species or system Beagle female dogs; conditions: dog; for AUC(0-t) / AUC(0-inf) / Cmax / Tmax: female, beagle, po; for AUC(0-t): AUC0-24 h; for AUC(0-inf): AUC0-inf
Protocol: Sixteen 20 week pure-bred Beagle female dogs weighing between 5.0 and 7.5 kg, have been divided into four groups of four dogs.
Each sample was transferred into a heparinized tube and was centrifuged; the plasma was divided into 500 μl two aliquots and frozen at −20° C.
as §1, §2

[4] = Reversible conversion of polymorphic forms with water content; assay type: physicochemical; conditions: water absorbed from atmospheric humidity
Source text: The product is hygroscopic and the obtained polymorphic form is reversible: the polymorphic form α absorbs water from atmospheric humidity, depending on the relative humidity and the exposure time. When the water content absorbed by the polymorphic form α becomes higher than 4.5%, polymorphous a converts to polymorphous β. This in its turn loses part of water by drying, changing into the polymorphic form α when a water content between […] is reached.

[5] = Intrinsic dissolution test (USP 27 monograph 1087); assay type: physicochemical; conditions: phosphate buffer pH 7.4, 37°C; SLS 0.1%, 0.3%, 0.45% and absent

| AUC0-24h (characterising range of the form) [1] [ng·h/mL] | AUC0-inf (characterising range of the form) [1] [ng·h/mL] | Cmax (characterising range of the form) [1] [ng/mL] | AUC0-inf (characterising range of the form) ([1]; 100 mg/kg) [ng·h/mL] | Cmax (characterising range of the form) ([1]; 100 mg/kg) [ng/mL] | Intrinsic dissolution rate [2] [mg/min/cm^2] | Rifaximin dissolved ([2]; 15 min) [mg/cm^2] | Rifaximin dissolved ([2]; 30 min) [mg/cm^2] | Rifaximin dissolved ([2]; 45 min) [mg/cm^2] | Rifaximin dissolved ([2]; 60 min) [mg/cm^2] | tmax (characterising range of the form) ([1]; 100 mg/kg) [h] | Structure (SMILES) | also measured |
| --- | --- | --- | --- | --- | --- | --- | --- | --- | --- | --- | --- | --- |
| 0 to 40 | 0 to 45 | 0.0 to 40 | 0.0 to 50 | 0.0 to 3.7 | 0.0147 | 0.28 | 0.50 | 0.72 | 0.94 | – | CO[C@H]1/C=C/O[C@@]2(C)Oc3c(C)c(O)c4c(O)c(c5c(nc6cc(C)ccn65)c4c3C2=O)NC(=O)/C(C)=C\C=C\[C@H](C)[C@H](O)[C@@H](C)[C@@H](O)[C@@H](C)[C@H](OC(C)=O)[C@@H]1C [rifaximin β, Rifaximin] | tmax (characterising range of the form) [1]: 1 to 6 h; AUC(0-t) ([1]; 100 mg/kg, AUC0-t (characterising range of the form)): < 40 ng·h/mL; Tmax ([1]; 100 mg/kg): 1 to 6 h |
| – | 0.0 to 22000 | – | – | 0.0 to 5000 | 0.1444 | 2.46 | 4.52 | 6.44 | 9.04 | 1.0 to 6.0 | CO[C@H]1/C=C/O[C@@]2(C)Oc3c(C)c(O)c4c(O)c(c5c(nc6cc(C)ccn65)c4c3C2=O)NC(=O)/C(C)=C\C=C\[C@H](C)[C@H](O)[C@@H](C)[C@@H](O)[C@@H](C)[C@H](OC(C)=O)[C@@H]1C [rifaximin γ, Rifaximin] | AUC(0-t) ([1]; 100 mg/kg, AUC0-24h (characterising range of the form)): < 22000 ng·h/mL; Cmax ([1]; Cmax): 1080 ng/mL; dose dependency of exposure (in words) [3]: tended to increase in an over-proportional way compared to the administered dose; AUC(0-t) ([3]; 25 mg/kg): 304 ng·h/mL; AUC(0-inf) ([3]; 25 mg/kg): 548 ng·h/mL; Cmax ([3]; 25 mg/kg): 114 ng/mL; Tmax ([3]; 25 mg/kg, tmax): 1.5 h; Tmax ([3]; 100 mg/kg): 2 h; AUC(0-t) ([3]; 300 mg/kg): 25000 ng·h/mL; AUC(0-inf) ([3]; 300 mg/kg): 25500 ng·h/mL; Cmax ([3]; 300 mg/kg): 3150 ng/mL; Tmax ([3]; 300 mg/kg, tmax): 3 h |
| 0 to 100 | 10 to 24 | 0.0 to 10 | 0 to 110 | 0.0 to 5.5 | – | – | – | – | – | 1.0 to 6 | CO[C@H]1/C=C/O[C@@]2(C)Oc3c(C)c(O)c4c(O)c(c5c(nc6cc(C)ccn65)c4c3C2=O)NC(=O)/C(C)=C\C=C\[C@H](C)[C@H](O)[C@@H](C)[C@@H](O)[C@@H](C)[C@H](OC(C)=O)[C@@H]1C [rifaximin α, Rifaximin] | Tmax [1]: 1 to 6 h; Tmax ([3]; 100 mg/kg, tmax): 2.5 h; water content above which form α converts to form β [4]: higher than 4.5%; disintegration of the compacted pellet [5]: ≤ 10 min |

Source: US8404704B2 (Alfa Wassermann S.p.A., priority 2003, dated 2013)
